“Also recorded” adds a separate entry of the source. Like-named read-outs stand apart in the source and are kept apart here. Square brackets hold non-standard residues; d marks the D form. Peptide text beside a SMILES is read from it. * marks the point of attachment. DOTA = O=C(O)CN1CCN(CC(=O)O)CCN(CC(=O)*)CCN(CC(=O)O)CC1; 2Thi = N[C@@H](Cc1cccs1)C(=O)O; Nle = CCCC[C@H](N)C(=O)O; AEEA = NCCOCCOCC(=O)O; βAla = NCCC(=O)O
Tests used:
[1] = 3D fused PET-CT images; male rat
Protocol: The study included nine AR 42 J tumor-bearing nude rats. We grouped all rats according to PET tracers (B, ^68Ga-BZH3 and R, ^68Ga-RGD4), used in dynamic PET scanning, as noted in Table 1. Dynamic PET studies were performed for 60 min after the intravenous application of 10 to 30 MBq ^68Ga-RGD4 or 20 to 40 MBq ^68Ga-BZH3, using a 28-frame protocol (ten frames of 30 s, five frames of 60 s, five frames of 120 s, and eight frames of 300 s). Two animals can be examined in parallel per scanning by a homemade injector (Figure 2). A dedicated PET-CT system (Biograph™ mCT, 128 S/X, Siemens Co, Erlangen, Germany) with an axial field of view of 21.6 cm with TrueV, operated in a three-dimensional mode, was used for all animal studies. The system provides the simultaneous acquisition of 369 transverse slices with a slice thickness of 0.6 mm. The animals were positioned in the axial plane of the system to maintain the best resolution in the center of the system. […] The SUV images were used for all further quantitative evaluations.
Dynamic PET data were evaluated using the software package PMOD (provided courtesy of PMOD Technologies Ltd., Zuerich, Switzerland). Areas with enhanced tracer uptake on transaxial, coronal, and sagittal images were evaluated visually. […] A detailed quantitative evaluation of tracer kinetics requires the use of compartmental modeling. […]

[2] = system: gliomas; conditions: compared with ^68Ga-DOTATOC in meningiomas, ref [47]; cited from earlier work
Description: Concerning the ^68Ga-BZH3 kinetics, k1 is a parameter that reflects the receptor binding and k3 is a parameter that reflects the internalization of the tracer.

[3] = system: AR42J tumor; conditions: for VB (vessel density, fractional blood volume) / K1 (transport into the cell; associated with receptor binding) / RBP (receptor binding potential) / k2 (displacement from the receptor) / k3 (cellular internalisation) / k4 (externalization): AR42J tumor-bearing nude rats, n = 5 (BZH3), n = 4 (RGD4); for VB (vessel density, fractional blood volume): dynamic PET 60 min, i.v.
Protocol: The AR42J cell line, derived from a rat exocrine pancreas neuroendocrine tumor, was used. Cells were obtained from the European Collection of Cell Cultures and were grown in RPMI 1640 medium supplemented with 2 mmol/L glutamine and 10% fetal calf serum. Adherent cells were dislodged with trypsin/ethylenediaminetetraacetic acid (0.02%: 0.05%, w/v). For PET-studies, 5 × 10^6 cells in 200 μl RPMI without supplements were inoculated subcutaneously in the right hind leg of Wistar rats.
The study included nine AR 42 J tumor-bearing nude rats. We grouped all rats according to PET tracers (B, ^68Ga-BZH3 and R, ^68Ga-RGD4), used in dynamic PET scanning, as noted in Table 1. Dynamic PET studies were performed for 60 min after the intravenous application of 10 to 30 MBq ^68Ga-RGD4 or 20 to 40 MBq ^68Ga-BZH3, using a 28-frame protocol (ten frames of 30 s, five frames of 60 s, five frames of 120 s, and eight frames of 300 s). Two animals can be examined in parallel per scanning by a homemade injector (Figure 2). A dedicated PET-CT system (Biograph™ mCT, 128 S/X, Siemens Co, Erlangen, Germany) with an axial field of view of 21.6 cm with TrueV, operated in a three-dimensional mode, was used for all animal studies. The system provides the simultaneous acquisition of 369 transverse slices with a slice thickness of 0.6 mm. The animals were positioned in the axial plane of the system to maintain the best resolution in the center of the system. All PET images were attenuation-corrected and an image matrix of 400 × 400 pixels was used for iterative image reconstruction (voxel size 1.565 × 1.565 × 0.6 mm) based on the syngo MI PET/CT 2009C software version. After the end of the dynamic series an ultrahigh resolution CT with 85 mA, 80 kV and a pitch of 0.85 cm was performed for attenuation correction of the acquired dynamic emission data. The reconstructed images were converted to SUV images based on the formula [24]: SUV = Tissue concentration (becquerel per gram)/[injected dose ([…]))/body weight (gram)]. The SUV 55 to 60 min post-injection was used for the assessment of both tracers. The SUV images were used for all further quantitative evaluations.
Dynamic PET data were evaluated using the software package PMOD (provided courtesy of PMOD Technologies Ltd., Zuerich, Switzerland). Areas with enhanced tracer uptake on transaxial, coronal, and sagittal images were evaluated visually. A volume of interest consists of several regions of interest over the target area. Irregular regions of interest were drawn manually. A detailed quantitative evaluation of tracer kinetics requires the use of compartmental modeling. A two-tissue-compartment model was used to evaluate the dynamic studies.
In animals, a partial volume correction must be applied to the data due to the small size of the input and tumor volumes of interest (VOIs). Herein, the recovery coefficient was 0.85 for a diameter of 8 mm and 0.32 for a diameter of 3 mm based on phantom measurements as well as the recent parameter settings used with the reconstruction software. For the input function the mean values of the VOI data obtained from the heart were used. We used a preprocessing tool, which allowed a fit of the input curve by a sum of up to three decaying exponentials. The learning-machine two-tissue-compartment model was used for the fitting and provided five parameters: the transport parameters for tracer into and out of the cell, K1 and k2, the parameters for phosphorylation and dephosphorylation of intracellular tracer, k3 and k4, and the fractional blood volume, also called vessel density (VB), which reflects the amount of blood in the VOI. Following compartment analysis, we calculated the global influx of tracer from the compartment data using the formula: influx = (K1 × k3)/(k2 + k3). […] The model parameters were accepted when K1 - k4 was less than 1 and VB exceeded 0. The unit for the rate constants K1 to k4 was 1/min.

[4] = system: gastrointestinal stromal tumors; conditions: ref [15], cited from earlier work
Description: Bombesin and the two mammalian bombesin-like peptides, […] regulate many biologic response processes through activation of distinct receptor subtypes, including modulation of smooth muscle contraction, secretion of neuropeptides and hormones, as well as stimulation of cell growth. Activation of neuromedin B (BB1) receptors has been reported in various human cancers.

[5] = system: AR42J tumor; assay: Dynamic PET, tumor uptake (SUV) in AR42J tumor-bearing nude rats; format: in vivo, rat; conditions: for SUV (standardized uptake value) in tumor: 55 to 60 min post-injection, i.v. 20 to 40 MBq (BZH3, n = 5), 10 to 30 MBq (RGD4, n = 4), nude rats
Description: (§1) Irregular regions of interest were drawn manually.

[6] = as above; format: in vivo, rat; conditions: rat, in vivo, iv, i.v. 20 to 40 MBq (BZH3, n = 5), 10 to 30 MBq (RGD4, n = 4), nude rats, read-out: SUV (standardized uptake value) in tumor
Description: as §1

[7] = system: bombesin receptor subtype (BB3); conditions: background statement; no reference given; cited from earlier work
Description: (§2) Objectives Receptor scintigraphy gains more interest for diagnosis and treatment of tumors, in particular for neuroendocrine tumors (NET). We used a pan-Bombesin analog, the peptide DOTA-PEG2-[D-tyr^6, β-Ala^11, Thi^13, Nle^14] BN(6-14) amide (BZH3). BZH3 binds to at least three receptor subtypes: the BB1 (Neuromedin B), BB2 (Gastrin-releasing peptide, GRP), and BB3. Imaging of ανβ3 integrin expression playing an important role in angiogenesis and metastasis was accomplished with a ^68Ga-RGD tetramer. […] We have reported ^68Ga-labeled bombesin may be helpful for diagnostic reasons in a subgroup of patients ...

[8] = system: BB1 (Neuromedin B); conditions: background statement; no reference given; cited from earlier work
Description: as §2

[9] = system: gastrin-releasing peptide receptor (GRP-r, also known as BB2); conditions: background statement; no reference given; cited from earlier work
Description: as §2

[10] = median, between tracers P 0.05*

Compound: CCCC[C@H](NC(=O)[C@H](Cc1cccs1)NC(=O)[C@H](Cc1c[nH]cn1)NC(=O)CCNC(=O)[C@@H](NC(=O)[C@H](C)NC(=O)[C@H](Cc1c[nH]c2ccccc12)NC(=O)[C@H](CCC(N)=O)NC(=O)[C@@H](Cc1ccc(O)cc1)NC(=O)COCCOCCNC(=O)COCCOCCNC(=O)CN1CCN(CC(=O)O)CCN(CC(=O)O)CCN(CC(=O)O)CC1)C(C)C)C(N)=O [^68Ga-BZH3, DOTA-PEG2-[D-Tyr^6 -β-Ala^11 -Thi^13 -Nle^14]BN(6-14) amide, metal not drawn] ({DOTA-AEEA-AEEA}-[dY]QWAV[βAla]H[2Thi][Nle]-NH2)
- tracer uptake in other sites [1]: liver, kidney, urinary bladder, and testicles
- internalization [2]: higher internalization
- receptor binding [2]: lower receptor binding
- FD, VB, K1 and RBP compared between tracers ([3]; ^68Ga-BZH3 vs ^68Ga-RGD tetramer): generally higher than the corresponding values for the ^68Ga-RGD tetramer
- VB (vessel density, fractional blood volume) ([3]; maximum): 0.1646
- K1 (transport into the cell; associated with receptor binding) ([3]; maximum): 0.4862 min⁻¹
- RBP (receptor binding potential) ([3]; maximum): 0.1202
- k2 (displacement from the receptor) ([3]; maximum): 0.6103 min⁻¹
- k3 (cellular internalisation) ([3]; maximum): 0.2005 min⁻¹
- k4 (externalization) ([3]; maximum): 0.1746 min⁻¹
- VB (vessel density, fractional blood volume) ([3]; mean): 0.1037
- K1 (transport into the cell; associated with receptor binding) ([3]; mean): 0.3717 min⁻¹
- RBP (receptor binding potential) ([3]; mean): 0.0765
- k2 (displacement from the receptor) ([3]; mean): 0.4808 min⁻¹
- k3 (cellular internalisation) ([3]; mean): 0.1235 min⁻¹
- k4 (externalization) ([3]; mean): 0.0986 min⁻¹
- VB (vessel density, fractional blood volume) [3, 10]: 0.0903
- RBP (receptor binding potential) ([3]; median, between tracers P 0.0275*): 0.0607
- K1 (transport into the cell; associated with receptor binding) [3, 10]: 0.3506 min⁻¹
- k4 (externalization) [3, 10]: 0.1005 min⁻¹
- k2 (displacement from the receptor) ([3]; median, between tracers P 0.4624): 0.5216 min⁻¹
- k3 (cellular internalisation) ([3]; median, between tracers P 0.8065): 0.1177 min⁻¹
- VB (vessel density, fractional blood volume) ([3]; minimum): 0.0603
- K1 (transport into the cell; associated with receptor binding) ([3]; minimum): 0.3055 min⁻¹
- RBP (receptor binding potential) ([3]; minimum): 0.0506
- k2 (displacement from the receptor) ([3]; minimum): 0.2768 min⁻¹
- k3 (cellular internalisation) ([3]; minimum): 0.0580 min⁻¹
- k4 (externalization) ([3]; minimum): 0.0493 min⁻¹
- uptake compared with ^18F-FDG [4]: lower than ^18F-FDG
- uptake in gastrointestinal stromal tumors ([4]; subgroup of patients): enhanced ^68Ga-BZH3 uptake in a subgroup of patients with gastrointestinal stromal tumors
- tumor visualisation ([5]; 3D fused PET-CT image, tumor in lower leg): clearly showed enhanced ^68Ga-BZH3 uptake in the tumor area in the lower leg
- tumor uptake compared with the other tracer ([5]; ^68Ga-BZH3 vs ^68Ga-RGD4, AR42J tumor-bearing nude rats): generally higher than ^68Ga-RGD4 uptake; also recorded: higher than that of ^68Ga-RGD4
- SUV (standardized uptake value) in tumor ([5]; maximum): 1.2884
- SUV (standardized uptake value) in tumor ([5]; minimum): 0.8628
- SUV ([6]; mean, 55 to 60 min post-injection): 1.08 SUV
- SUV ([6]; median, 55 (56) to 60 min post-injection, between tracers P 0.8065): 1.19 SUV

Compound: Bombesin [reference compound]
- binding/affinity for BB3 [7]: high affinity
- binding/affinity for BB1 [8]: high affinity
- binding/affinity for BB2 [9]: high affinity

Compound: DOTA-PEG2-[D-Tyr^6 -β-Ala^11 -Thi^13 -Nle^14 ]BN(6-14) amide [BZH3, pan-Bombesin analog, unlabelled precursor]
- binding/affinity for BB3 [7]: binds
- binding/affinity for BB1 [8]: binds
- binding/affinity for BB2 [9]: binds
